# Assay results taken from patent publication US20090253616A1, “COMBINATION THERAPY FOR THE TREATMENT OF CANCER” (ASTRAZENECA AB, priority 2006, published 2009).
# Test system: MCF7 ADR cells
# Experiment: Activity in MDR cells: inhibition of phosphohistone H3 (phH3) in MCF7 ADR cells, with and without UIC2 mAb
# Type: cell-based
# Description: MCF7 ADR cells are known to highly express Pgp and other efflux transporters.
# On day 1; 8×10^4 MCF7 ADR cells/ml were plated into a 96 well plate in 100 μl of media (DMEM, 10% FCS, 1% glutamine) and left to adhere at 37° C. overnight.
# After 24 hours the cells were examined using the light microscope, and any cellular change in morphology was noted. The cells were then fixed with 100 μl of 3.7% formaldehyde for 30 minutes at room temperature and then washed in PBS using an automated plate washer. 1001 PBS 0.5% triton X-100 was then added for 5 minutes on a shaker. The plate was washed in 100 μl PBS and 50 μl of primary antibody (1:1000 rabbit anti-phosphohistone H3 in PBS 1% BSA 0.5% tween) was added. The plate was left for at least 1 hour at room temperature, on a shaker, after which the antibody was removed and the cells washed twice with PBS. In darkness, 50 μl of secondary antibody (1:10,000 Hoechst and 1:1000 Alexa Fluor 488 anti rabbit in PBS 1% BSA 0.5% tween) was added and the plate left for at least 1 hour at room temperature. The secondary antibody was removed and the plate washed twice with PBS. 200 μl PBS was then added and left for 10 minutes with shaking. The PBS was removed. 100 μl PBS was added and the plate sealed prior to analysis. […]
# The plate was analysed on a Cellomics Arrayscan using the Target Activation algorithm. […]
compound,measurement,setting,value
"CCN(CCCOc1ccc2c(Nc3cc(CC(=O)Nc4cccc(F)c4)[nH]n3)ncnc2c1)CCOP(=O)(O)O [aurora kinase inhibitor, 2-[[3-({4-[(5-{2-[(3-fluorophenyl)amino]-2-oxoethyl}-1H-pyrazol-3-yl)amino]-quinazolin-7-yl}oxy)propyl](ethyl)amino]ethyl dihydrogen phosphate]",activity of aurora kinase inhibitor alone (inhibition of phH3),100 nM,inactive
same,Pgp mediated efflux of the compound (substrate of Pgp),efflux inhibited by UIC2 mAb 10 μg/ml,Pgp mediated efflux
